Experimental data taken from patent publication US20260248799A1, “COMBINATIONS OF RETINALDEHYDE DEHYDROGENASE 1 (RALDH1) INHIBITORS AND IMMUNOSTIMULATORS AND METHODS USING SAME” (The Trustees of the University of Pennsylvania, priority 2023, published 2026).

How the values were obtained:
hALDHIA1 = target: T1, hALDHIA1 (Homo sapiens, UniProt P00352); experiment: hALDH1A1 inhibition (Table 4); assay type: biochemical
T1 sequence (P00352 1-501): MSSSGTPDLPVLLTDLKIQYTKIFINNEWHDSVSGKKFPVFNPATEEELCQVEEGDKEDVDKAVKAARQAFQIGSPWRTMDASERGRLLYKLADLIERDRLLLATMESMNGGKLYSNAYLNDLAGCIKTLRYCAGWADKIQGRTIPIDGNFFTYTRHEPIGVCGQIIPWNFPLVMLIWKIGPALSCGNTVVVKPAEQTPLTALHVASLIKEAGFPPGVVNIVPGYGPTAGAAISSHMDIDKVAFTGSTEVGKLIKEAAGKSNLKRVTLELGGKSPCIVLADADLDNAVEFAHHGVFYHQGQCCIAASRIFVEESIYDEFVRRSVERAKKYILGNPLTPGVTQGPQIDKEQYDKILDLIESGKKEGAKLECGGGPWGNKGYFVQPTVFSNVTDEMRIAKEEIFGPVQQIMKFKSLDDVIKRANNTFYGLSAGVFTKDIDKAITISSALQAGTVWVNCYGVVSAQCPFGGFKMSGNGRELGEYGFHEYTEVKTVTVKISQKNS
Experimental: (§1) Compounds ALDH inhibitory effects of C-9125, C-9163, and C-9175 were evaluated in a number of cell lines, including MiaPaCa2 and OV90 cell lines, utilizing the AldeFlour assay described elsewhere herein (Table 4).

MiaPaCa2 cells = experiment: AldeFlour assay in MiaPaCa2 cells; assay type: cell-based; conditions: Homo sapiens, MIA PaCa-2, read-out: MiaPaCa cells IC50
Excerpt: (§2) The Aldefluor assay has been used to identify and isolate cells with high ALDH activities. This assay is based on the principle that ALDH can convert the ALDH-substrate, Bodipy-aminoacetaldehyde (BAAA) into Bodipy-aminoacetate (BAA) which is retained inside the cells. BAAA is uncharged and can diffuse freely into intact viable cells, however BAA cannot cross the membrane due to its net negative charge, which makes remain in the cells and the assay buffer prevents efflux of the BAA from the cells. Therefore, the amount of BAA fluorescence in cells is proportional to ALDH activity and can be measured using a flow cytometer. A specific inhibitor of ALDH, diethylaminobenzaldehyde (DEAB), is used for background fluorescence control.
as §1

[1] = tested on: SNU398 (human HCC cell line); experiment: LC-MS for ATRA in SNU398 cells; conditions: C86 100 nmol/L, WIN18446 1,000 nmol/L, 24 hours
[2] = tested on: Hepa1-6 (mouse HCC cell line); experiment: LC-MS for ATRA in Hepa1-6 cells; conditions: 1,000 nmol/L, 24 hours
Huh7 tumors = Huh7 tumors in NU/J mice; assay type: in vivo, mouse; conditions: Huh7
Experimental: FIGS. 26A-26H: Raldh1-INH suppresses HCC growth by altering macrophage functions. FIG. 26A: Huh7 tumor-bearing NU/J mice were treated with C86 (i.p, 10 mg/kg) every day starting when tumor size was approximately 50 mm^3. Tumor volume was measured every 2 days. […] Three or more independent experiments were performed with at least three replicates per experimental group. Unpaired t test, two-tailed. FIG. 26B: AldeRed assay at endpoint on Huh7 tumor treated as described in FIG. 26A. […] Three or more independent experiments were performed with at least three replicates per experimental group. Unpaired t test, two-tailed. FIG. 26C: Huh7 tumor-bearing nude mice were treated with different dose of C86 every day. Tumor volume was measured every 2-3 days. […] Two independent experiments were performed with at least three replicates per experimental group. Unpaired t test, two-tailed. FIG. 26D: Body weight measured every 3-5 days for the experiment outlined in FIG. 26C. FIG. 26E: Parental Huh7 or RALDH1-KO Huh7 cells were implanted subcutaneously into NU/J mice and treated with C86 (i.p, 10 mg/kg) or vehicle (control) every day. […] Three or more independent experiments were performed with at least three replicates per experimental group. Unpaired t test, two-tailed. FIG. 26F: Huh7 tumor-bearing NU/J mice were treated with clodronate liposomes (CloLipo) and/or C86. […] Two independent experiments were performed with at least three replicates per experimental group. Unpaired t test, two-tailed. FIG. 26G: Murine Hepa 1-6 tumors were implanted subcutaneously into C57BL6/J WT mice or LyMCre:RosadnRAR mice. Expression of the dominant negative RAR in myeloid cells slows tumor growth. Two independent experiments were performed with at least three replicates per experimental group. Unpaired t test, two-tailed. FIG. 26H: Huh7 cells were implanted subcutaneously into NU/J mice. When tumor size reached about 50 mm^3, mice were intraperitoneally injected vehicle (control) or C86 daily with or without BMS493 treatment intratumorally every 3 days. BMS493 and C86 suppress tumor growth with the combination showing higher suppression than monotherapy. *, P<0.05; **, P<0.01; ***, P<0.001; n.s., not significant.
Cultured Huh7, Huh1, Hepa 1-6, Hep55, and FS (as indicated in figure legends) tumor cells were detached using 0.25% trypsin (Gibco, catalog #25200056), washed once with 1×PBS, and counted before implantation. 3~6×10^6 tumor cells were implanted subcutaneously (s.c.) into shaved flanks of recipient mice. Tumor dimensions were measured using a caliper starting at the day indicated in the accompanying figure legend and every two to three days thereafter; volume was calculated by using formula Length*Width^2/2. Tumor volumes of 2,000 mm^3, tumor length of 2 cm or tumor ulceration were used as endpoints for survival analyses.
Compound-86, 97 and 99 powder was dissolved in 20% HPβCD saline (2-Hydroxypropyl)-[…]). Drug was administered i.p. or p.o. starting when tumor volume reached 50-150 mm^3 and repeated every day.

[3] = tested on: macrophages from primary human monocytes; experiment: Numbers of live monocyte-derived macrophages in vitro; assay type: cell-based; conditions: C86 treated TCM or BMS493; three days
Experimental: (§3) FIGS. 24A-24E: Raldh1-INH blocks tumor supportive functions of monocytes and macrophages. FIG. 24A: Circulating primary human monocytes were collected from donors and cultured with MCSF (50 ng/mL) to generate macrophages. On day 3 of these cultures, DMSO or RA (100 nmol/L) was added to generate control monocyte-derived macrophages (Control-MoDM) or RA monocyte-derived macrophages (RA-MoDM), respectively. On day 7 of these cultures, macrophages were collected for each well after washing with 1×PBS, mixed with Huh7 cells at approximately 50:50 ratio, and the mix injected into the flanks of NU/J mice. Huh7 tumors cells that were not mixed with any macrophages before flank injection served as an additional control. Tumor volume was measured every 2 days (left graph). 19 days after tumor injection, mice were sacrificed and tumor weight (right graph) was measured. […] Three or more independent experiments were performed with at least three replicates per experimental group. Unpaired t test, two-tailed. […] Tumor growth was monitored daily (left graph). 13 days after tumor cell transplantation, mice were sacrificed and tumor weight measured (right graph). […] Three days later, cells were harvested, counted, and stained with PI for FCS analyses. […] Cell proliferation was measured by counting live cell numbers (y-axis). […] 72 hours later, the cells were washed, counted, and analyzed by FCS. […]

human HCC lines = experiment: Human HCC lines cocultured with pretreated macrophages; assay type: cell-based; conditions: macrophages exposed to BMS493
Experimental: as §3

SNU398 human HCC cells = experiment: AldeRed (Aldefluor) assay in SNU398 cells; assay type: cell-based
Experimental: The AldeRed assay (EMD Millipore) was performed according to manufacturer's instructions to identify cells with ALDH activity. In brief, single-cell suspensions of Huh7, Huh1, SNU449, SNU398, HEP3B, PLC, Hepa 1-6, Hep55, and AL458A cultured cells or single-cell suspension generated from enzymatic digestion of tumors generated from transplantation of these cells in mice (as indicated in figure legends) were incubated with a fluorescent and non-toxic ALDH substrate (AldeRed 588-A); the fluorescent product accumulates in cells proportional to their ALDH activity. The amount of fluorescence produced is measured by flow cytometry. The ALDH inhibitor diethylaminobenzaldehyde (DEAB, provided with the AldeRed assay kit) was used as a negative control for background fluorescence assessment.
as §2

## N#CC1(c2ccc(-c3c(C(=O)N[C@H]4CC[C@H](O)CC4)cnc4ccc(F)cc34)cc2)CC1 [Compound C-9125, 4-(4-(1-cyanocyclopropyl)phenyl)-6-fluoro-N-((1r,4r)-4-hydroxycyclohexyl)quinoline-3-carboxamide]
hALDHIA1
  IC50: 7 nM
MiaPaCa2 cells
  IC50: 130 nM

## N#CC1(c2ccc(-c3c(C(=O)Nc4cnn(CCO)c4)cnc4ccc(F)cc34)cc2)CC1 [Compound C-9163, 4-(4-(1-cyanocyclopropyl)phenyl)-6-fluoro-N-(1-(2-hydroxyethyl)-1H-pyrazol-4-yl)quinoline-3-carboxamide]
hALDHIA1
  IC50: 4 nM
MiaPaCa2 cells
  IC50: 93 nM

## O=C(NCCCCCCCCNC(=O)C(Cl)Cl)C(Cl)Cl [WIN18446]
[1]
  ATRA by LC-MS (RALDH1 inhibition): inhibits both murine and human RALDH1
[2]
  ATRA by LC-MS (RALDH1 inhibition): inhibits both murine and human RALDH1

## N#CC1(c2ccccc2)CCN(c2c(C(=O)Nc3cnn(CCO)c3)cnc3ccc(F)cc23)CC1 [Compound C-9175, 4-(4-cyano-4-phenylpiperidin-1-yl)-6-fluoro-N-(1-(2-hydroxyethyl)-1H-pyrazol-4-yl)quinoline-3-carboxamide]
hALDHIA1
  IC50: 6 nM
MiaPaCa2 cells
  IC50: 12 nM

## CC1(C)CC=C(C#Cc2ccccc2)c2cc(/C=C/c3ccc(C(=O)O)cc3)ccc21 [BMS 493, (E)-4-(2-(5,5-dimethyl-8-(phenylethynyl)-5,6-dihydronaphthalen-2-yl)vinyl)benzoic acid, reference compound]
Huh7 tumors; intraperitoneal administration, compared to a control (FIGS. 12B-12C)
  tumor mass and volume: significant reduction in tumor mass and volume
[3]
  RA and tumor-CM induced increase in macrophage numbers: reversed
Human HCC lines
  increase of tumor cell numbers by RA pre-treated macrophages: this effect was reversed

## N#CC1(c2ccccc2)CCN(c2c(C(=O)N[C@H]3CC[C@H](O)CC3)cnc3ccc(F)cc23)CC1 [Compound C-97, 4-(4-cyano-4-phenylpiperidin-1-yl)-6-fluoro-N-((1r,4r)-4-hydroxycyclohexyl)quinoline-3-carboxamide]
SNU398 human HCC cells; SNU398, 1 nM
  ALDH activity compared to the DMSO control: partial inhibition
SNU398 human HCC cells; SNU398, Aldefluor assay
  concentration giving essentially complete inhibition of ALDH: ≥ 10 nM
Huh7 tumors; C-86 versus C-97 (FIGS. 17A-17B)
  tumor mass and volume: significant reduction in tumor mass and volume
Huh7 tumors; FIGS. 17A-17B
  tumor suppressive activity relative to C-86: enhanced tumor suppressive activity as compared to C-86
